Experimental data as given in patent US20260356824A1, “COMPOUNDS FOR TREATING FIBROTIC DISEASES” (Meta-Immue Inc., priority 2023, published 2026).

What was measured:
hLPAR1 = target: T1, hLPAR1 (Homo sapiens, UniProt Q92633); assay: Ca2+ Flux Assay (B103 cells stably expressing hLPAR1); type: cell-based; details: LPA-induced calcium release, Fura-2 AM, compound 20 min at RT
T1 construct: expressed in transfected cells
Description: B103 cells stably expressing hLPAR1 were seeded at a density of 1.0×10^5 cells per well in clear flat-bottom black 96-well plates and incubated overnight in complete media. The following day, the cells were pre-incubated in serum-free media for 2 hours prior to ensure cellular equilibration. For the loading a calcium-sensitive fluorescent dye, the cells were treated with a concentration of 5 μM Fura-2 AM dye (Sigma, F1225) in Hank's buffered salt solution (HBSS) supplemented with 20 mM HEPES, […], and 0.3% fatty-acid-free bovine serum albumin for 40 minutes at room temperature (RT). Test compounds, prepared in DMSO, were then added to each well and incubated for 20 minutes at RT. To induce calcium release, a concentration of […] in HBSS supplemented with 20 mM HEPES, and 0.3% fatty-acid-free bovine serum albumin was introduced. Intracellular calcium mobilization was subsequently quantified by monitoring the fluorescence intensity using the Spark® multimode microplate reader (TECAN).

A2058 cells = assay: Chemotaxis Assay (LPA-induced migration of A2058 cells); type: cell-based; details: Homo sapiens, 4 to 8 hours, crystal violet 590 nm
Description: For monitoring the migration of cells, Neuroprobe ChemoTx® System plates ([…], 5.7 mm diameter sites; Gaithersburg, MD, USA) were utilized. To induce cell migrations, a concentration of […] or vehicle in DMEM were loaded to the bottom chamber. A total of 15,000 A2058 cells, which were starved for 24 hr following treated with test compounds or vehicle, were then applied to the upper membrane coated with 0.001% fibronectin. The plate was incubated for 4 to 8 hours to allow cell migration. Following incubation, the plate was dissembled, and the migrated cells were visualized by crystal violet staining. The stained area with crystal violet was quantified by measuring the absorbance at 590 nm and the relative percentage of the control was calculated.

BSEP = target: T2, BSEP (Homo sapiens, UniProt O95342); assay: Bile Salt Export Pump (BSEP) Assay, Sf9 insect cell vesicles expressing BSEP; type: in vitro ADME; details: 10 μM test compound, probe substrate 1 μM [3H]-taurocholic acid, 15 min incubation
T2 construct: ATP-dependent uptake of radiolabelled probe substrate
Description: • 1. A stock solution was prepared with the test article (Sponsor compound) in DMSO. • 2. All final assay solutions of probe substrate, reference inhibitor or test article contain 0.5% (v/v) DMSO (vehicle control). • 3. Test article concentrations in transport study were specified in the Summary Table of Experimental Conditions of this protocol.
• 1. Bovine Serum Albumin (BSA) • 2. Dimethyl sulfoxide (DMSO) • 3. BSEP Assay Uptake Buffer (10 mM HEPES-Tris pH 7.4, 0.1 M KNO3, 12.5 mM Mg(NO3)2, 50 mM sucrose) • 4. BSEP Wash Buffer (10 mM Tris-HCl pH 7.4, 0.1 M KNO3, 50 mM sucrose) • 5. BSEP Blocking Buffer (BSEP Wash Buffer+0.5 mg/mL BSA) • 6. 25 mM Mg-ATP solution • 7. 25 mM AMP solution • 8. Corning Costar 96-well flat-bottom, untreated, white Assay Plate (Corning Cat. No. 3912) • 9. Millipore MultiscreenHTs Filtration Plate, glass fiber FB—1.0/0.65 μm (Cat. No. MSFBN6B10 or glass fiber FC—1.2/0.65 μm (Cat. No. MSFCN6B10) • 10. Millipore MultiscreenHTS Vacuum Manifold (Cat. No. MSVMHTS00) • 11. Probe substrates listed in Table 1 • 12. Reference inhibitors listed in Table 1 • 13. Test articles
• 1. Test system: • a. 96-well flat bottom plate containing a suspension of vesicles and a corresponding 96-well glass fiber filtration plate. • b. Transport experiments were conducted in the Assay Uptake Buffer. • c. Transport experiment was initiated with the addition of Mg-ATP or AMP to appropriate wells. • d. Each condition was run in triplicate wells. • 2. Prepared the 96-well flat-bottom assay plate. • a. Incubated the assay plate with the Blocking Buffer for 60 min at 37 °C with orbital shaking at approximately 90 rpm. (NOTE: This is done to prevent non-specific binding of vesicles to polystyrene assay plate). • b. After 60 min, completely removed the Blocking Buffer from the assay plate. • c. The Assay Uptake Buffer solutions were added to the assay plate wells as follows: • i. For probe substrate transport assays, the Assay Uptake Buffer contained vesicles and the probe substrate at the specified concentration. • ii. For the reference inhibition assay, the Assay Uptake Buffer contained vesicles, the reference inhibitor and the probe substrate at the specified concentration in Table 1. • iii. For the test article assays, Assay Uptake Buffer contained vesicles, the test article and the probe substrate at the specified concentration in Table 1. • 3. Incubate at 37 °C with orbital shaking at approximately 90 rpm for the time period specified in Table 1 of this protocol. • 4. Using the 25 mM Mg-ATP or AMP stocks, Mg-ATP or AMP was added to test wells of flat bottom assay plate to a final concentration of 5 mM. • 5. Incubated at 37 °C with orbital shaking at approximately 90 rpm for the incubation time specified in Table 1 of this protocol. • 6. Prepared the 96-well glass fiber filtration plate: • a. Incubated the filtration plate with the Blocking Buffer for 2 min at room temperature with under no vacuum. • b. Turned on vacuum and allowed Blocking Buffer to filter through plate. • c. With vacuum on, filter plate was washed with ice cold Wash Buffer. • 7. At the end of the specified incubation time indicated in […] of this protocol, vesicle transport was quenched by adding ice cold Wash Buffer to samples in 96-well assay plate. • 8. Mixed assay samples (now diluted in Wash Buffer) with pipette and transfered 175 μL into the 96-well glass fiber filtration plate to separate vesicles from buffer by applying vacuum. • 9. Washed filter plate wells with ice cold Wash Buffer. • 10. Allowed filter plate to dry under vacuum. • 11. Transfered filters to scintillation sample plate and added 700 μL of scintillation fluid to the above samples. • 12. Counted the above samples on a 1450 Microbeta (Perkin-Elmer).
• 1. The amount of substrate was quantified with radiometric detection on a 1450 Microbeta (Perkin-Elmer). • 2. For transport study samples run in triplicate, the mean and standard deviation of the replicates were reported. • 3. […]

T1 sequence (Q92633 whole entry): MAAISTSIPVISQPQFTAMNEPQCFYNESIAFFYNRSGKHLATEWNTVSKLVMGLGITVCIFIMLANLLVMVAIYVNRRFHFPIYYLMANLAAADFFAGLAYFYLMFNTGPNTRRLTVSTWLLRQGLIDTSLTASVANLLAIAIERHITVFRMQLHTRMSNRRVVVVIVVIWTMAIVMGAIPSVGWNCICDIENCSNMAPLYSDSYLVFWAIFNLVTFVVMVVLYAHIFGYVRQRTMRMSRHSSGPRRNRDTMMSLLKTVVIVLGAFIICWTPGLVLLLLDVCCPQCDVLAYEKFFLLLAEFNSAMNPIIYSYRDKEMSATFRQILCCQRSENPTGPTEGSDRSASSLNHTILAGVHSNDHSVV
T2 sequence (O95342 whole entry): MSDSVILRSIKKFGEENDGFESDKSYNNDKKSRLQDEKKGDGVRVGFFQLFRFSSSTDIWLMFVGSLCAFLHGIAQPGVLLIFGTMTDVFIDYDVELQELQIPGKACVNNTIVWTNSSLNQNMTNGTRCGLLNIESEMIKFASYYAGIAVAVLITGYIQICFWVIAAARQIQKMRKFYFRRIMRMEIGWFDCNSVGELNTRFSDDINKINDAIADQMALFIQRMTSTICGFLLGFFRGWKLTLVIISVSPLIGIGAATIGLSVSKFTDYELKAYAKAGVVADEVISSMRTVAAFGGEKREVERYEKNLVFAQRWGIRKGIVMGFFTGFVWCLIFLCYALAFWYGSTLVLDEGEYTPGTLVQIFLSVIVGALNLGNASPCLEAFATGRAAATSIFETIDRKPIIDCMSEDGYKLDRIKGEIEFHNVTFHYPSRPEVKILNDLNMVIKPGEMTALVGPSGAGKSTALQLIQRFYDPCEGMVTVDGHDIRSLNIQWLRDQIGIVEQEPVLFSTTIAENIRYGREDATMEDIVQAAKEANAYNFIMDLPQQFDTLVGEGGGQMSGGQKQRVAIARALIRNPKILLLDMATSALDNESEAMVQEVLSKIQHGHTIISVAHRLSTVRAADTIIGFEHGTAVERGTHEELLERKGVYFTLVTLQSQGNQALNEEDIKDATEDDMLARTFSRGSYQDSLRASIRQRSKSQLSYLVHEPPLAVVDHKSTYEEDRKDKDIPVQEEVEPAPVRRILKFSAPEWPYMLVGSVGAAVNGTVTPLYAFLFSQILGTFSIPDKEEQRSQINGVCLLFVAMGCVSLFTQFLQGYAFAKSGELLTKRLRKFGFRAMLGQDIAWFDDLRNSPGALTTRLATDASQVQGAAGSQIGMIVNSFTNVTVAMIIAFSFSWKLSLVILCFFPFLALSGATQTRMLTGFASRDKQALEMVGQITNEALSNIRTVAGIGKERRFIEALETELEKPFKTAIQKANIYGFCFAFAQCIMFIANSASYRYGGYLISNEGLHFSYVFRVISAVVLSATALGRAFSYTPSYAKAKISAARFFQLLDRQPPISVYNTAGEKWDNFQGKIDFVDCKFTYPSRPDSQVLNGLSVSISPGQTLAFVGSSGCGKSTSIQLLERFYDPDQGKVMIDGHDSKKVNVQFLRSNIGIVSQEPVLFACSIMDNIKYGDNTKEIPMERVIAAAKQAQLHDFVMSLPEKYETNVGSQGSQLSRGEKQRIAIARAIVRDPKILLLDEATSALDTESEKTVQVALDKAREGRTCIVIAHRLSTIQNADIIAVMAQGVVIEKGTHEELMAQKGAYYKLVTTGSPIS

Structure (SMILES)	IC50 (hLPAR1) [nM]	IC50 (A2058 cells) [nM]	inhibition at 0.25 h, 10 µM (BSEP) [%]
C[C@@H](OC(=O)Nc1c(C2CCN(c3ccc(C4(C(=O)NS(=O)(=O)CCO)CC4)cc3)CC2)nnn1C)c1ccccc1 [Compound 59]	< 10	100 to 500	≤ 25
COc1cc(C2(C(=O)O)CC2)ccc1N1CCC(c2onc(C)c2NC(=O)O[C@H](C)c2ccccc2)CC1 [Compound 63, (R)-1-(3-methoxy-4-(4-(3-methyl-4-(((1-phenylethoxy)carbonyl)amino)isoxazol-5-yl)piperidin-1-yl)phenyl)cyclopropane-1-carboxylic acid]	< 10	< 100	≤ 25
Cc1noc(C2CCN(c3ccc(C4(C(=O)O)CC4)cc3)CC2)c1C(O)CCCc1ccccc1 (centres unmarked) [Compound 20]	10 to 200	100 to 500	75 to 100
Cc1noc(C2CCN(c3ccc(C4(C(=O)NS(=O)(=O)CC(C)(C)C(=O)O)CC4)cc3)CC2)c1NC(=O)O[C@H](C)c1ccccc1 [Compound 78, (R)-2,2-dimethyl-3-(N-(1-(4-(4-(3-methyl-4-(((1-phenylethoxy)carbonyl)amino)isoxazol-5-yl)piperidin-1-yl)phenyl)cyclopropane-1-carbonyl)sulfamoyl)propanoic acid]	< 10	< 100	25 to 50
Cc1nsc(C2CCN(c3ccc(C4(C(=O)O)CC4)cc3)CC2)c1NC(=O)O[C@H](C)c1ccccc1 [Compound 95]	10 to 200	100 to 500	25 to 50
Cc1noc(C2CCN(c3ccc(C4(C(=O)O)CC4)cc3)CC2)c1NC(=O)O[C@H](C)c1ccccc1Cl [Compound 74, 1-(4-{4-[4-({[(1R)-1-(2-chlorophenyl)ethoxy]carbonyl}amino)-3-methyl-1,2-oxazol-5-yl]piperidin-1-yl}phenyl)cyclopropane-1-carboxylic acid]	< 10	< 100	50 to 75
Cc1noc(C2CCN(c3ccc(C4(C(=O)NS(=O)(=O)C(C)CC(=O)O)CC4)cc3)CC2)c1NC(=O)O[C@H](C)c1ccccc1 (some centres unmarked) [Compound 72]	< 10	< 100	≤ 25
C[C@@H](OC(=O)Nc1ccsc1C1CCN(c2ccc(C3(C(=O)O)CC3)cc2)CC1)c1ccccc1 [Compound 93]	10 to 200	< 100	50 to 75
Cc1noc(C2CCN(c3ccc(C4(C(=O)NS(=O)(=O)CC5(C(=O)O)CC5)CC4)cc3)CC2)c1NC(=O)O[C@H](C)c1ccccc1 [Compound 82, 1-[({[1-(4-{4-[3-methyl-4-({[(1R)-1-phenylethoxy]carbonyl}amino)-1,2-oxazol-5-yl]piperidin-1-yl}phenyl)cyclopropyl]formamido}sulfonyl)methyl]cyclopropane-1-carboxylic acid]	< 10	< 100	–
C[C@@H](OC(=O)Nc1c(C2CCN(c3ccc(C4(C(=O)O)CC4)cc3)CC2)nnn1C)C1CCCCC1 [Compound 26, (R)-1-(4-(4-(5-(((1-cyclohexylethoxy)carbonyl)amino)-1-methyl-1H-1,2,3-triazol-4-yl)piperidin-1-yl)phenyl)cyclopropane-1-carboxylic acid]	< 10	500 to 5000	–
C[C@@H](OC(=O)Nc1c(C2CCN(c3ccc(C4(C(=O)NS(=O)(=O)CC5(C(=O)O)CC5)CC4)cc3)CC2)nnn1C)c1ccccc1Cl [Compound 41]	< 10	100 to 500	–
Cc1noc(C2CCN(c3ccc(C4(C(=O)NS(=O)(=O)C5(CC(=O)O)CC5)CC4)cc3)CC2)c1NC(=O)O[C@H](C)c1ccccc1 [Compound 76]	< 10	100 to 500	–
Cc1nsc(C2CCN(c3ccc(C4(C(=O)O)CC4)cc3)CC2)c1NC(=O)O[C@H](C)c1ccccc1F [Compound 43]	10 to 200	100 to 500	–
COCc1ccccc1[C@H](C)OC(=O)Nc1c(C2CCN(c3ccc(C4(C(=O)O)CC4)cc3)CC2)nnn1C [Compound 24, (S)-1-(4-(4-(5-(((1-(2-(methoxymethyl)phenyl)ethoxy)carbonyl)amino)-1-methyl-1H-1,2,3-triazol-4-yl)piperidin-1-yl)phenyl)cyclopropane-1-carboxylic acid]	< 10	100 to 500	–
Cc1noc(C2CCN(c3ccc(C4(C(=O)O)CC4)cc3)CC2)c1N(C)C(=O)O[C@H](C)c1ccccc1 [Compound 45]	10 to 200	100 to 500	–
Cc1noc(C2CCN(c3ccc(C4(C(=O)NS(=O)(=O)C(F)(F)C(N)=O)CC4)cc3)CC2)c1NC(=O)O[C@H](C)c1ccccc1 [Compound 66]	< 10	< 100	–
Cc1noc(C2CCN(c3ccc(C4(C(=O)O)CC4)cc3)CC2)c1NC(=O)N[C@H](C)c1ccccc1 [Compound 16]	10 to 200	500 to 5000	–
C[C@@H](OC(=O)Nc1c(C2CCN(c3ccc(C4(C(=O)NS(=O)(=O)CC(C)(C)C(=O)O)CC4)cc3)CC2)nnn1C)c1ccccc1Cl [Compound 40]	10 to 200	100 to 500	–
Cc1ccccc1[C@@H](C)OC(=O)Nc1c(C)noc1C1CC2(C1)CN(c1ccc(C3(C(=O)NS(=O)(=O)CCC(=O)O)CC3)cc1)C2 [Compound 31, 3-({[1-(4-{6-[3-methyl-4-({[(1R)-1-(2-methylphenyl)ethoxy]carbonyl}amino)-1,2-oxazol-5-yl]-2-azaspiro[3.3]heptan-2-yl}phenyl)cyclopropyl]formamido}sulfonyl)propanoic acid]	10 to 200	< 100	–
C[C@@H](OC(=O)Nc1c(C2CCN(c3ccc(C4(C(=O)NS(=O)(=O)C(C)(C)C(=O)O)CC4)cc3)CC2)nnn1C)c1ccccc1 [Compound 56]	< 10	100 to 500	–
COc1cc(C2(C(=O)O)CC2)ccc1N1CC2(CC(c3onc(C)c3NC(=O)O[C@H](C)c3ccccc3)C2)C1 [Compound 46, 1-(3-methoxy-4-{6-[3-methyl-4-({[(1R)-1-phenylethoxy]carbonyl}amino)-1,2-oxazol-5-yl]-2-azaspiro[3.3]heptan-2-yl}phenyl)cyclopropane-1-carboxylic acid]	< 10	500 to 5000	–
